Data as given in patent US20030138935A1, “Selective deactivation of yeast in corn wet milling process slurries” (priority 2002, published 2003).
Values joined by “and” are separate entries in the source; they are usually repeats but may differ in a detail not shown here. Identical values can stand only once.

Experiments:
[1] = system: yeast and lactic acid producing bacteria; experiment: Pour-plate culture on Sabourad-Dextrose Agar (SDA); type: cell-based, lactobacillus; settings: for Plate Showing activity, SDA: serial dilution
Protocol: (§1) All tests were conducted using heavy […] samples provided by a major U.S. corn wet milling facility. To confirm the concept that octanoic acid is selective in killing only yeast but not desirable bacteria, microbiological activity was assessed by examining separate culture plates prepared using two different agars. Plates prepared using Potato-Dextrose Agar (PDA) were used to assess the fate of yeast in the present of octanoic acid, as PDA is known to be specific to the propagation of yeast and mold. Plates prepared using Sabourad-Dextrose Agar (SDA) were used to determine the fate of “desired” bacteria as SDA is specific for both yeast and lactic acid producing bacteria. Several serial dilutions (10^1 to 10^7) of heavy […] samples were prepared for the pour plates at 0 ppm (control), 10 ppm, 25 ppm, and 50 ppm (active) of octanoic acid, then agitated in a 100° F. shaking water bath for 4 hours. Plates were similarly prepared using the same samples after agitation for 24 hours. All plates were incubated at […]. for 4 days before performing measurements. In addition to inspecting the plates for microbial activity, aliquots of each sample (after 4 hours and after 24 hours) were examined under a microscope for visual speciation.

[2] = system: gas-producing microorganisms in corn wet milling heavy steepwater; experiment: Flask Pressure Profile (gas production in heavy steepwater); type: cell-based, yeast; settings: for Manometer readings: 100° F.
Protocol: All tests were conducted using heavy […] samples provided by a major U.S. corn wet milling facility. A Flask Pressure Profile method was developed and used to measure changes in gas production. The sample of heavy […] to an Erlenmeyer flask, then placed into a water bath at 100° F. and agitated slowly (30-40 rpm). The flask was connected to a U-tube manometer filled with distilled water. […] An increase in flask pressure indicated gas-producing microbial activity. Tests using octanoic acid were performed in […] ppm (control), 10 ppm, 25 ppm, and 50 ppm (active).

[3] = system: yeast and mold; experiment: Pour-plate culture on Potato-Dextrose Agar (PDA); type: cell-based; settings: test concentrations from 10-50 ppm; 4 hour and 24 hour incubations
Protocol: as §1

With `CCCCCCCC(=O)O` [Octanoic Acid, Octanoic acid] the “Plate Showing activity, SDA” value ([1]; 10 ppm, sample incubation time 4 hrs) was 10^2, the “Plate Showing activity, SDA” value ([1]; 10 ppm, sample incubation time 24 hrs) was 10^2 and the “Plate Showing activity, SDA” value ([1]; 25 ppm, sample incubation time 4 hrs) was 10^1. For the same molecule, the “Plate Showing activity, SDA” value ([1]; 25 ppm, sample incubation time 24 hrs) was 10^2, the “Plate Showing activity, SDA” value ([1]; 50 ppm, sample incubation time 4 hrs) was 10^2 and the “Plate Showing activity, SDA” value ([1]; 50 ppm, sample incubation time 24 hrs) was 10^2. For the same molecule, the “Effect on activity of lactobacillus” value ([1]; test concentrations from 10-50 ppm, 4 hour and 24 hour incubations) was “do not measurably decrease the activity of lactobacillus”, the Manometer readings ([2]; 10 ppm, t = 0 hours) was 0.0 in H2O and 0 in H2O and the Manometer readings ([2]; 10 ppm, t = 1 hours) was 0.0 in H2O. The Manometer readings ([2]; 10 ppm, t = 1.5 hours) was 0.0 in H2O, the Manometer readings ([2]; 10 ppm, t = 2 hours) was 0.0 in H2O and the Manometer readings ([2]; 10 ppm, t = 2.5 hours) was 0.0 in H2O. It also gave a Manometer readings ([2]; 10 ppm, t = 3 hours) of 0.0 in H2O, a Manometer readings ([2]; 10 ppm, t = 3.5 hours) of 0.0 in H2O and a Manometer readings ([2]; 10 ppm, t = 4 hours) of 0.0 in H2O. The Manometer readings ([2]; 10 ppm, t = 4.5 hours) was 0.0 in H2O, the Manometer readings ([2]; 10 ppm, t = 5 hours) was 0.0 in H2O and the Manometer readings ([2]; 10 ppm, t = 5.5 hours) was 0.0 in H2O. The Manometer readings ([2]; 10 ppm, t = 6 hours) was 0.0 in H2O, the Manometer readings ([2]; 10 ppm, t = 6.5 hours) was 0.0 in H2O and the Manometer readings ([2]; 25 ppm, t = 0 hours) was 0.0 in H2O. For the same molecule, the Manometer readings ([2]; 25 ppm, t = 0.5 hours) was 0.25 in H2O, the Manometer readings ([2]; 25 ppm, t = 1 hours) was 0.0 in H2O and the Manometer readings ([2]; 25 ppm, t = 1.5 hours) was 0.0 in H2O. The Manometer readings ([2]; 25 ppm, t = 2 hours) was 0.0 in H2O, the Manometer readings ([2]; 25 ppm, t = 2.5 hours) was 0.0 in H2O and the Manometer readings ([2]; 25 ppm, t = 3 hours) was 0.0 in H2O. The Manometer readings ([2]; 25 ppm, t = 3.5 hours) was 0.0 in H2O, the Manometer readings ([2]; 25 ppm, t = 4 hours) was 0.0 in H2O and the Manometer readings ([2]; 25 ppm, t = 4.5 hours) was 0.0 in H2O. For the same molecule, the Manometer readings ([2]; 25 ppm, t = 5 hours) was 0.0 in H2O, the Manometer readings ([2]; 25 ppm, t = 5.5 hours) was 0.0 in H2O and the Manometer readings ([2]; 25 ppm, t = 6 hours) was 0.0 in H2O. The Manometer readings ([2]; 25 ppm, t = 6.5 hours) was 0.0 in H2O, the Manometer readings ([2]; 50 ppm, t = 0 hours) was 0.0 in H2O and the Manometer readings ([2]; 50 ppm, t = 0.5 hours) was 0.0 in H2O. It also gave a Manometer readings ([2]; 50 ppm, t = 1 hours) of 0.0 in H2O, a Manometer readings ([2]; 50 ppm, t = 1.5 hours) of 0.0 in H2O and a Manometer readings ([2]; 50 ppm, t = 2 hours) of 0.0 in H2O. The Manometer readings ([2]; 50 ppm, t = 2.5 hours) was 0.0 in H2O, the Manometer readings ([2]; 50 ppm, t = 3 hours) was 0.0 in H2O and the Manometer readings ([2]; 50 ppm, t = 3.5 hours) was 0.0 in H2O. It also gave a Manometer readings ([2]; 50 ppm, t = 4 hours) of 0.0 in H2O, a Manometer readings ([2]; 50 ppm, t = 4.5 hours) of 0.0 in H2O and a Manometer readings ([2]; 50 ppm, t = 5 hours) of 0.0 in H2O. The Manometer readings ([2]; 50 ppm, t = 5.5 hours) was 0.0 in H2O, the Manometer readings ([2]; 50 ppm, t = 6 hours) was 0.0 in H2O and the Manometer readings ([2]; 50 ppm, t = 6.5 hours) was 0.0 in H2O. The “Effect on gas-producing microorganisms” value ([2]; all of the applied dosages (10, 25, 50 ppm), heavy steepwater) was “effectively reduces all gas-producing microorganisms” and the Effect on yeast [3] was “selectively kills the yeast”.
